Measured values taken from article PMC11952846, “The sterol-regulating human ARV1 binds cholesterol and phospholipids through its conserved ARV1 homology domain” (The Journal of Biological Chemistry, 2025).

Key:
[1] = target: T1, GST-ARV1-N70 (Homo sapiens, UniProt Q9H2C2); assay: Lipid overlay far western, truncation; type: binding; details: compared to ARV1-N98
T1 construct: Expresses amino-terminal 70 amino acids of ARV1; made in house; host or cells: E. coli BL21 (pGEX-4T1)
T1 sequence (Q9H2C2 1-70): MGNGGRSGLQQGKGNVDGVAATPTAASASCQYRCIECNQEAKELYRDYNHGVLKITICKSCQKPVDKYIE
Experimental: (§1) Lipid overlays were blocked in TBST-BSA (100 mM Tris–HCl buffer, pH 7.5, 150 mM NaCl, 0.5% Tween 20, 3% bovine serum albumin) for 1 h and subsequently washed eight separate times with TBST for 2 min each. Overlays were incubated with 0.5 μg/ml GST-tagged or 6XHIS-tagged proteins in 3% TBST-BSA buffer containing 0.1% Triton X-100, for 1 h at room temperature and washed as above. Overlays were incubated with either anti-GST or anti-6XHIS monoclonal antibodies at a 1:1000 dilution in TBST-BSA for 1 h at room temperature followed by eight washes in TBST. Overlays were visualized using Immobilon Western Chemiluminescent horseradish peroxidase substrate and protein–lipid interaction was detected using a GE ImageQuant LAS 3000 imager.

[2] = target: GST-Annexin A2 (Homo sapiens, UniProt P07355); assay: Lipid overlay far western (positive control protein); type: binding; details: lipid-embedded membrane strips, incl. sphingolipid strip
Sequence of GST-Annexin A2 (P07355 whole entry): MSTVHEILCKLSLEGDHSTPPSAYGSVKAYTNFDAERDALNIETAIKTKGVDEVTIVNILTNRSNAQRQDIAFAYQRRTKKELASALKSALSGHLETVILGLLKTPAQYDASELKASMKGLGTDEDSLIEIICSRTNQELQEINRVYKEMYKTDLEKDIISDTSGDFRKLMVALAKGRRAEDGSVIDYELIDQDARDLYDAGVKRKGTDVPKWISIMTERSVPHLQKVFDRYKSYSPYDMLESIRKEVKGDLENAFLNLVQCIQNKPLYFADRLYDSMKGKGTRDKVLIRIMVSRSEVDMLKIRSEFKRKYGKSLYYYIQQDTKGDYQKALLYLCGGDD
Experimental: as §1

[3] = target: T2, GST-ARV1-N98 C58/C61A (Homo sapiens, UniProt Q9H2C2, C58A/C61A); assay: Liposome binding assay, site-directed mutant; details: PC:PL, sulfatide or PI(4)P liposomes
T2 construct: Expresses amino-terminal 98 amino acids of ARV1; made in house; host or cells: E. coli BL21 (pGEX-4T1)
T2 sequence (Q9H2C2 1-98 C58A/C61A): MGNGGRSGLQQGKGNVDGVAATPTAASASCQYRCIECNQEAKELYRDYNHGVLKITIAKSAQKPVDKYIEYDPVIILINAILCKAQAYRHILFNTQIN
Experimental: (§2) Lyophilized lipids were reconstituted in chloroform at 10 mg/ml and stored in glass tubes with Teflon tops at −20 °C until use. One milliliter of 10 mg/ml stock was dried under a stream of nitrogen in a glass tube until a lipid cake/film was formed. The lipid cake was then rehydrated in BLT rehydration buffer (5 mM Tris/HCl, pH 7.4, containing 150 mM NaCl) to a concentration of 1 mg/ml. Lipid suspensions were subjected to three freeze/thaw cycles using a dry ice ethanol/[…] water bath to encapsulate the buffer and improve liposome formation. The suspension and lipid extruder were equilibrated to temperature for 10 min and liposomes were extruded using […] polycarbonate membranes (Avestin). Liposomes were made by mixing stock lipid PL (1 mg/ml) with PC (10 mg/ml).
(§3) Sulfatide liposomes were generated as previously described ([94]). All lipids were resuspended in organic solvents as per manufacturer’s instructions. Liposomes were prepared with mixing PC:PE:cholesterol:sulfatides (1:1:1:4) and subsequently dried down by lyophilization to obtain lipid films. Lipids were hydrated in 20 mM Tris–HCL, pH 6.8, containing 100 mM NaCl at a concentration of 1 mg/ml.
(§4) PI(4)P liposomes were generated as described by Knodler et al. ([95]), with some modifications. Briefly, liposomes were generated at a lipid concentration of 10 mg/ml. Liposomes contained PC (60%), PI (30%), PE (8%), and PI(4)P (2%). Lipid solution was dried down and resuspended in liposome buffer (20 mM Hepes–HCL, pH 7.4, containing 1 mM EDTA and 50 mM potassium acetate). Liposomes were formed by sonication on ice.
(§5) Liposomes were serial diluted in floatation buffer (100 mM NaCl, 2 mM EDTA, pH 5.5) to a final concentration of 0.1 mg/ml. Nine hundred microliters of liposome solution was placed in clear ultracentrifuge tubes and mixed with 100 μl of 0.01 μg/ml of protein. The liposome/protein solution was incubated at room temperature for 1 h with occasional shaking. An initial 100 μl of liposome/protein solution (liposomes) was removed and the remaining 900 μl was centrifuged at 50,000g for 20 min at 4 °C. The pellet was resuspended in 800 μl of fresh floatation buffer, centrifuged as above, and 800 μl of supernatant was removed (wash 1). This was repeated a second time and again 800 μl of supernatant was removed (wash 2). The final pellet was resuspended in 100 μl of floatation buffer plus SDS treatment buffer (pellet). Thirty microliters of each fraction was run on a 15% SDS-PAGE gel and probed with an anti-GST monoclonal antibody at a 1:1500 dilution.

[4] = target: T3, GST-ARV1-N98 N94A (Homo sapiens, UniProt Q9H2C2, N94A); assay: Liposome binding assay, site-directed mutant; details: PC:PL, sulfatide or PI(4)P liposomes
T3 construct: Expresses amino-terminal 98 amino acids of ARV1; made in house; host or cells: E. coli BL21 (pGEX-4T1)
T3 sequence (Q9H2C2 1-98 N94A): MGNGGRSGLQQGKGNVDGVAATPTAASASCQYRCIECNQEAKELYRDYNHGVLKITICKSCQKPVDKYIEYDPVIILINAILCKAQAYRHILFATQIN
Experimental: as §2, §3, §4, §5

[5] = target: T4, GST-ARV1-N98 K67A (Homo sapiens, UniProt Q9H2C2, K67A); assay: Liposome binding assay, site-directed mutant; details: PC:PL, sulfatide liposomes
T4 construct: Expresses amino-terminal 98 amino acids of ARV1; made in house; host or cells: E. coli BL21 (pGEX-4T1)
T4 sequence (Q9H2C2 1-98 K67A): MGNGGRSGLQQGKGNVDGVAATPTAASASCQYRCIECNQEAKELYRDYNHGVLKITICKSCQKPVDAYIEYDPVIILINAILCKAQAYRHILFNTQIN
Experimental: as §2, §3, §4, §5

[6] = target: T5, GST-ARV1-N98 C34/C37A (Homo sapiens, UniProt Q9H2C2, C34A/C37A); assay: Liposome binding assay, site-directed mutant; details: PC:PL, sulfatide or PI(4)P liposomes
T5 construct: Expresses amino-terminal 98 amino acids of ARV1; made in house; host or cells: E. coli BL21 (pGEX-4T1)
T5 sequence (Q9H2C2 1-98 C34A/C37A): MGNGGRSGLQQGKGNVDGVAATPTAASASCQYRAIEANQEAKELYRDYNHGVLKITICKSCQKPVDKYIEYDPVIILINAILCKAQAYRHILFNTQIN
Experimental: as §2, §3, §4, §5

[7] = target: T6, GST-ARV1-N98 K54/K59A (Homo sapiens, UniProt Q9H2C2, K54A/K59A); assay: Liposome binding assay, site-directed mutant; details: PC:PL, sulfatide liposomes
T6 construct: Expresses amino-terminal 98 amino acids of ARV1; made in house; host or cells: E. coli BL21 (pGEX-4T1)
Experimental: as §2, §3, §4, §5

[8] = target: T7, GST-ARV1-N98 (Homo sapiens, UniProt Q9H2C2); assay: Lipid overlay far western; type: binding; details: lipid-embedded membrane strips, incl. sphingolipid strip
T7 construct: Expresses amino-terminal 98 amino acids of ARV1; made in house; host or cells: E. coli BL21 (pGEX-4T1)
T7 sequence (Q9H2C2 1-98): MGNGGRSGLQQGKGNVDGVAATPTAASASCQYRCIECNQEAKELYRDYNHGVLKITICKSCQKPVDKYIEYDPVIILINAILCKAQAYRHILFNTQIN
Experimental: as §1

[9] = target: T8, GST-ARV1 (full-length ARV1) (Homo sapiens, UniProt Q9H2C2); assay: Lipid overlay far western; type: binding; details: lipid-embedded membrane strips, incl. sphingolipid strip
T8 construct: Expresses full length ARV1; made in house; host or cells: E. coli BL21 (pGEX-4T1)
T8 sequence (Q9H2C2 1-271): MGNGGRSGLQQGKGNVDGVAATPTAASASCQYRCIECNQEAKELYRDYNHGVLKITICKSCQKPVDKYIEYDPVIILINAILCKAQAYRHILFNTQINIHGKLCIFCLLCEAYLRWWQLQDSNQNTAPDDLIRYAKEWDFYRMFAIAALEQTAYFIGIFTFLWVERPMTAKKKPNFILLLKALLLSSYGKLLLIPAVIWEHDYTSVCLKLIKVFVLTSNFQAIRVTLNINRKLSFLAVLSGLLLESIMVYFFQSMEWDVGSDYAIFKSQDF
Experimental: as §1

[10] = target: T9, 6XHIS-ARV1-N98 K67A (Homo sapiens, UniProt Q9H2C2, K67A); assay: Lipid overlay far western, site-directed mutant; type: binding; details: compared to the ARV1-N98 protein
T9 construct: Expressing amino-terminal 98 amino acids of ARV1; made in house; host or cells: E. coli BL21 (pET-28a(+))
T9 sequence (Q9H2C2 1-98 K67A): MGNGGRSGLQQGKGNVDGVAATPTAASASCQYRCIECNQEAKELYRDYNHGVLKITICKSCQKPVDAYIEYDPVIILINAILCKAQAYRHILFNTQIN
Experimental: as §1

[11] = target: T10, 6XHIS-ARV1-N98 K54/K59A (Homo sapiens, UniProt Q9H2C2, K54A/K59A); assay: Lipid overlay far western, site-directed mutant; type: binding; details: compared to the ARV1-N98 protein
T10 construct: Expressing amino-terminal 98 amino acids of ARV1; made in house; host or cells: E. coli BL21 (pET-28a(+))
T10 sequence (Q9H2C2 1-98 K54A/K59A): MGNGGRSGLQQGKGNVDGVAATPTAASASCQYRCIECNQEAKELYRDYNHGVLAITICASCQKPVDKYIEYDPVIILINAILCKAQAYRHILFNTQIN
Experimental: as §1

[12] = target: T11, 6XHIS-ARV1-N98 N94Q (Homo sapiens, UniProt Q9H2C2, N94Q); assay: Lipid overlay far western, site-directed mutant; type: binding; details: compared to the ARV1-N98 protein
T11 construct: Expressing amino-terminal 98 amino acids of ARV1; made in house; host or cells: E. coli BL21 (pET-28a(+))
T11 sequence (Q9H2C2 1-98 N94Q): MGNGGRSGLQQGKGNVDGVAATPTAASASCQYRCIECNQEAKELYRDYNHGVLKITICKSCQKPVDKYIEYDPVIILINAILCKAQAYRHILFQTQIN
Experimental: as §1

[13] = target: T12, 6XHIS-ARV1-N98 C34/C37A (Homo sapiens, UniProt Q9H2C2, C34A/C37A); assay: Lipid overlay far western, site-directed mutant; type: binding; details: compared to the ARV1-N98 protein
T12 construct: Expressing amino-terminal 98 amino acids of ARV1; made in house; host or cells: E. coli BL21 (pET-28a(+))
T12 sequence (Q9H2C2 1-98 C34A/C37A): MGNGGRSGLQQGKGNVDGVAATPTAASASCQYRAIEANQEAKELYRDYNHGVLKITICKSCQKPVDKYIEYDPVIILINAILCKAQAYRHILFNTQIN
Experimental: as §1

[14] = target: T13, 6XHIS-ARV1-N98 C58/C61A (Homo sapiens, UniProt Q9H2C2, C58A/C61A); assay: Lipid overlay far western, site-directed mutant; type: binding; details: compared to the ARV1-N98 protein
T13 construct: Expressing amino-terminal 98 amino acids of ARV1; made in house; host or cells: E. coli BL21 (pET-28a(+))
T13 sequence (Q9H2C2 1-98 C58A/C61A): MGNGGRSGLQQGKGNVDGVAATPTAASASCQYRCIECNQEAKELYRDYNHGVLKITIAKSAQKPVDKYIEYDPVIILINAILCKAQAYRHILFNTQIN
Experimental: as §1

change of lipid-protein interaction [1]: loss of interaction
lipid-protein interaction [2]: interacted
liposome binding [3]: did not bind
liposome binding [4]: very weak
liposome binding [5]: unable to bind
liposome binding [6]: not
liposome binding [7]: unable to bind
lipid-protein interaction [8]: interacted
lipid-protein interaction [9]: interacted
change of lipid-protein interaction [10]: weakened
change of lipid-protein interaction [11]: abolished
change of lipid-protein interaction [12]: more strongly
change of lipid-protein interaction [13]: eliminated any interaction
change of lipid-protein interaction [14]: eliminated any interaction
Substance: sulfatide
